Assays:
[1] = biological target: T1, MDR1 (P-gp, ABCB1) (Homo sapiens, UniProt P08183); assay: Inhibition of human recombinant MDR1 in cell membrane fraction preincubated for 5 mins at 0.1 uM measured after 40 mins by Pgp-Glo luciferase assay; type: cell-based
[2] = Absolute bioavailability in dog; type: ADME, organism-based, Canis lupus familiaris; details: in vivo
[3] = biological target: T1, MDR1 (P-gp, ABCB1); assay: Inhibition of human recombinant MDR1 in cell membrane fraction preincubated for 5 mins at 100 uM measured after 40 mins by Pgp-Glo luciferase assay; type: cell-based
[4] = biological target: T1, MDR1 (P-gp, ABCB1); assay: Inhibition of human recombinant MDR1 in cell membrane fraction preincubated for 5 mins at 0.01 uM measured after 40 mins by Pgp-Glo luciferase assay; type: cell-based
[5] = Fraction unbound in Sprague-Dawley rat at 5 mg/kg, po; details: in vivo
[6] = Oral bioavailability in human; details: in vivo
[7] = biological target: T1, MDR1 (P-gp, ABCB1); assay: Inhibition of human recombinant MDR1 in cell membrane fraction preincubated for 5 mins at 10 uM measured after 40 mins by Pgp-Glo luciferase assay; type: cell-based
[8] = biological target: T1, MDR1 (P-gp, ABCB1); assay: Inhibition of human recombinant MDR1 in cell membrane fraction preincubated for 5 mins at 1 uM measured after 40 mins by Pgp-Glo luciferase assay; type: cell-based
[9] = system: Plasma; assay: Total steady state plasma concentration in Sprague-Dawley rat at 5 mg/kg, po; type: ADME, organism-based; set-up: dose 5 mg/kg, route oral; details: in vivo
[10] = biological target: ATP-dependent translocase ABCB1 (Homo sapiens, UniProt P08183); assay: Inhibition of human recombinant MDR1 in cell membrane fraction preincubated for 5 mins measured after 40 mins by Pgp-Glo luciferase assay; type: cell-based
[11] = biological target: T2, CYP3A4 (Homo sapiens, UniProt P08684); assay: Inhibition of human recombinant CYP3A4 expressed in insect cell microsomes preincubated for 10 mins at 0.1 uM by fluorescence assay; details: recombinant enzyme
[12] = biological target: T2, CYP3A4; assay: Inhibition of human recombinant CYP3A4 expressed in insect cell microsomes preincubated for 10 mins at 10 uM by fluorescence assay; details: recombinant enzyme
[13] = biological target: T2, CYP3A4; assay: Inhibition of human recombinant CYP3A4 expressed in insect cell microsomes preincubated for 10 mins at 1 uM by fluorescence assay; details: recombinant enzyme

T2 sequence (P08684 whole entry): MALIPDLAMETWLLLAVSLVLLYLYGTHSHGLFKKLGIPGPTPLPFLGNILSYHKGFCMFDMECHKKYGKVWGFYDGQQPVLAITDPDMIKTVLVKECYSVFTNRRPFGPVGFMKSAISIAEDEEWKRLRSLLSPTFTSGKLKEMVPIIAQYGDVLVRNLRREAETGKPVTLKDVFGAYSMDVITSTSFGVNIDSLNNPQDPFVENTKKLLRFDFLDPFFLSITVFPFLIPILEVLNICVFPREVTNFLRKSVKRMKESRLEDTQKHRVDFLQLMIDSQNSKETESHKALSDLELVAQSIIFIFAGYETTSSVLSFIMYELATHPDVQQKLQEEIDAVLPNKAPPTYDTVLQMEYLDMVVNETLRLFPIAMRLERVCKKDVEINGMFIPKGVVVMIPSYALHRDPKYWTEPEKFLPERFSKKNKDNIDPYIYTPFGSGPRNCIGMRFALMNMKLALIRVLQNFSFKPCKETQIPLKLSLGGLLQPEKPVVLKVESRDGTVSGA
T1 sequence (P08183 whole entry): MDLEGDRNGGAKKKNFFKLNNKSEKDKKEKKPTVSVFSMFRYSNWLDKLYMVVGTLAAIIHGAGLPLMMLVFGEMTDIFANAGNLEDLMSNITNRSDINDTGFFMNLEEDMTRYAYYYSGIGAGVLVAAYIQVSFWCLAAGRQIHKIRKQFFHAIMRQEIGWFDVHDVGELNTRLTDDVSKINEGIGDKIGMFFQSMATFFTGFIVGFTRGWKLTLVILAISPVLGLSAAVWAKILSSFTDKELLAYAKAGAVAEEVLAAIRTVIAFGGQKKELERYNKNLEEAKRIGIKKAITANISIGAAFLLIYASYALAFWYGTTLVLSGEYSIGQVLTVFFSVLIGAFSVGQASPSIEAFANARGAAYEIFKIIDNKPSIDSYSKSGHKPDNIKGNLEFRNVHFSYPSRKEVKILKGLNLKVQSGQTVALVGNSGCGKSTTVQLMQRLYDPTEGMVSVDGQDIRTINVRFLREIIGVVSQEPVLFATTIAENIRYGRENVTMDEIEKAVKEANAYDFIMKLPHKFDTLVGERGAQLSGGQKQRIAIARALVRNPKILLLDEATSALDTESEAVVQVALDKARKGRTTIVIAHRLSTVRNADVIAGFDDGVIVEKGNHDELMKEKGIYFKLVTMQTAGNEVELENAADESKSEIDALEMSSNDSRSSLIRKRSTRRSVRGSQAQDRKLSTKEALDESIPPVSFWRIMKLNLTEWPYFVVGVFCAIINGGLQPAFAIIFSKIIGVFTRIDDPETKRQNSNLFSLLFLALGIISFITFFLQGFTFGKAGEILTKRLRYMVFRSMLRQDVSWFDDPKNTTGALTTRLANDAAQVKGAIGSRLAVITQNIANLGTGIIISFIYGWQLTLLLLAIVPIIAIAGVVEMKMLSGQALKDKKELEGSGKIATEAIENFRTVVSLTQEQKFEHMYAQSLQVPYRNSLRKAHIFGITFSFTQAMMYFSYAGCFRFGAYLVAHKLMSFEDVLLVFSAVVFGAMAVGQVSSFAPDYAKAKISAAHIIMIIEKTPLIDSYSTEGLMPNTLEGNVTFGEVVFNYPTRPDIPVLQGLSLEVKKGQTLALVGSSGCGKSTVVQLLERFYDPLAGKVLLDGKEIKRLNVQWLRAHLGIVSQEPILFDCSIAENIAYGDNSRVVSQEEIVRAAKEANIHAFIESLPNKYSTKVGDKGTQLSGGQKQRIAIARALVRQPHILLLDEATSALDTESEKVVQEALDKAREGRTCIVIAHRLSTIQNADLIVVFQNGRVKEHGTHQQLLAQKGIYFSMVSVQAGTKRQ
Chain of ATP-dependent translocase ABCB1 (P08183 whole entry): as above

Structure (SMILES)	inhibition at 40 min, 0.1 µM [1]	bioavailability [2]	inhibition at 40 min, 100 µM [3]	inhibition at 40 min, 0.01 µM [4]	fraction unbound [5]	bioavailability [6]	inhibition at 40 min, 10 µM [7]	inhibition at 40 min, 1 µM [8]	concentration [9]	IC50 [10]	inhibition at 0.1 µM [11]	inhibition at 10 µM [12]	inhibition at 1 µM [13]
COc1cc2c(cc1OC)C(=O)C(CC1CCN(Cc3ccccc3)CC1)C2 (stereo not drawn) [DONEPEZIL]	< 15%	50%	76%	< 15%	0.04	92%	23.5%	17.8%	60 nM	34.9 µM			
CC(=O)N1CCN(c2ccc(OCC3COC(Cn4ccnc4)(c4ccc(Cl)cc4Cl)O3)cc2)CC1 (stereo not drawn) [KETOCONAZOLE]											33.9%	92.3%	87.2%
